Where two headings read alike, the source gives them in different places.
Assays:
CDK4 = target: T1, CDK4 (Homo sapiens, UniProt P11802); assay: In vitro kinase inhibition IC50, luminescence (ADP Glo), retinoblastoma substrate; format: biochemical; details: read-out: CDK4/D1 IC50
T1 construct: purchased Invitrogen PR8064A
How it was run: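 Inhibition of CDK4 was quantified by ADP Glo luminescence with retinoblastoma as substrate. Reactions held 5 nM kinase, 1 μM retinoblastoma and 25 μM ATP and ran 2H at room temperature. A Synergy Neo reader took signals 15 min and 45 min after detection reagent, and percent inhibition was fitted to a four-parameter logistic model in XLfit to obtain IC50.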

CDK6 = target: T2, CDK6 (Homo sapiens, UniProt Q00534); assay: as above; format: biochemical; details: read-out: CDK6/D1 IC50
T2 construct: purchased Invitrogen PR8422B
T2 sequence (Q00534 whole entry): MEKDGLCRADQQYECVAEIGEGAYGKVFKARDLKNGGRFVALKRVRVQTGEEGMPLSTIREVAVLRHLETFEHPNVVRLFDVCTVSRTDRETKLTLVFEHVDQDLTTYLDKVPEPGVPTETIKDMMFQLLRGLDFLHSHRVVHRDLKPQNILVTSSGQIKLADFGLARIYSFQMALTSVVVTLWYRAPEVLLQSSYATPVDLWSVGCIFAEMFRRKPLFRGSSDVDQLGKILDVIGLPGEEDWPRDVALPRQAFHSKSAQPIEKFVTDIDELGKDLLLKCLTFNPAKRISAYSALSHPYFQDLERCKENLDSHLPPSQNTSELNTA
T2 sequence (P24385 whole entry partner): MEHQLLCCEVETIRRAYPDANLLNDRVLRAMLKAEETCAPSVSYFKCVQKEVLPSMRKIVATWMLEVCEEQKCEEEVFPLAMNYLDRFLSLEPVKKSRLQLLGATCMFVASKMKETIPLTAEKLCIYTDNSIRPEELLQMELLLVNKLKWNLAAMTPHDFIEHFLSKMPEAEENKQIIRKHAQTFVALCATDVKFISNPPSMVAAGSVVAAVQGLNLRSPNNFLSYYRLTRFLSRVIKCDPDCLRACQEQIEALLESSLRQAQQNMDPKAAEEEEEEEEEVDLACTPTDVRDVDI
How it was run: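 IC50 derived by four-parameter logistic fit of percent inhibition, read as ADP-Glo luminescence. Reactions: 5 nM CDK6, 1 μM retinoblastoma, 25 μM ATP, test compound 0.1–200 nM final, 2 h at room temperature.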

CDK1 (cyclin B) = target: T3, CDK1 (cyclin B) (Homo sapiens, UniProt P06493); assay: Z'-LYTE kinase assay; format: biochemical
T3 construct: purchased Invitrogen Life Technologies (assay service)
T3 sequence (P06493 whole entry): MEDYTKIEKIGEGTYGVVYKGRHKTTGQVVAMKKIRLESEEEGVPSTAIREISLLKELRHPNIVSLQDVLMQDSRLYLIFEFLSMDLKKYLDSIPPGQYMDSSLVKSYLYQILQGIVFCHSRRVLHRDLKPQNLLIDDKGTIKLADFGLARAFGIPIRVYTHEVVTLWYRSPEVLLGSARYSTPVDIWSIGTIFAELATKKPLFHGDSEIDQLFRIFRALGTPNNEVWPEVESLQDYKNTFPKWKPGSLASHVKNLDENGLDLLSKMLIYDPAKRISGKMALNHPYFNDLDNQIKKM
T3 sequence (P14635 whole entry partner): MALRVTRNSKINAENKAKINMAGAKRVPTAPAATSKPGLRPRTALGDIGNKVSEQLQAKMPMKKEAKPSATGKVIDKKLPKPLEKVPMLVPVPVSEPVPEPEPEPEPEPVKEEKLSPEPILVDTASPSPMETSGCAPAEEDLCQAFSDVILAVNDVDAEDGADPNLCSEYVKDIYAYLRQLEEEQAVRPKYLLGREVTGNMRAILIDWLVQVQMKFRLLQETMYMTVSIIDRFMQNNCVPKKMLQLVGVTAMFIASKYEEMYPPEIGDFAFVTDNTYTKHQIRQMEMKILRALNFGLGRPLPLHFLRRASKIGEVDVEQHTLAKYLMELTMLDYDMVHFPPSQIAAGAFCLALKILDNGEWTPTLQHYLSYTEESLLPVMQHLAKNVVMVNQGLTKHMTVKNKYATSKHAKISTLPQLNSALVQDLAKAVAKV
Protocol: The plates were shaken for 30 seconds, and incubated for 60 minutes at room temperature. […] The plates were read on fluorescence plate reader with Dual emission at 445 nm and 520 nm.
The following equations were used for Z′-LYTE™ Screening Assay Data Analysis.

CDK2 (cyclin A) = target: T4, CDK2 (cyclin A) (Homo sapiens, UniProt P24941); assay: Z'-LYTE kinase assay; format: biochemical
T4 construct: purchased Invitrogen Life Technologies (assay service)
How it was run: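 FRET-based Z′-LYTE read-out using 1.22–10.3 ng CDK2/cyclin A with Ser/Thr 12 peptide (2 μM in the 2× mix) and ATP (31 μM as the 4× solution), in HEPES pH 7.5, MgCl2, EGTA and BRIJ-35, for 60 min at room temperature. After 1 h of development, the 445/520 nm emission was read, and percent inhibition was fitted to a four-parameter logistic curve for IC50.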

FMS kinase = target: T5, FMS kinase (Homo sapiens, UniProt P07333); assay: LanthaScreen Eu Kinase Binding Assay (ATP, fluorescent-PolyGT substrate); format: biochemical
T5 construct: purchased Invitrogen (Life Technologies)
T5 sequence (P07333 20-972): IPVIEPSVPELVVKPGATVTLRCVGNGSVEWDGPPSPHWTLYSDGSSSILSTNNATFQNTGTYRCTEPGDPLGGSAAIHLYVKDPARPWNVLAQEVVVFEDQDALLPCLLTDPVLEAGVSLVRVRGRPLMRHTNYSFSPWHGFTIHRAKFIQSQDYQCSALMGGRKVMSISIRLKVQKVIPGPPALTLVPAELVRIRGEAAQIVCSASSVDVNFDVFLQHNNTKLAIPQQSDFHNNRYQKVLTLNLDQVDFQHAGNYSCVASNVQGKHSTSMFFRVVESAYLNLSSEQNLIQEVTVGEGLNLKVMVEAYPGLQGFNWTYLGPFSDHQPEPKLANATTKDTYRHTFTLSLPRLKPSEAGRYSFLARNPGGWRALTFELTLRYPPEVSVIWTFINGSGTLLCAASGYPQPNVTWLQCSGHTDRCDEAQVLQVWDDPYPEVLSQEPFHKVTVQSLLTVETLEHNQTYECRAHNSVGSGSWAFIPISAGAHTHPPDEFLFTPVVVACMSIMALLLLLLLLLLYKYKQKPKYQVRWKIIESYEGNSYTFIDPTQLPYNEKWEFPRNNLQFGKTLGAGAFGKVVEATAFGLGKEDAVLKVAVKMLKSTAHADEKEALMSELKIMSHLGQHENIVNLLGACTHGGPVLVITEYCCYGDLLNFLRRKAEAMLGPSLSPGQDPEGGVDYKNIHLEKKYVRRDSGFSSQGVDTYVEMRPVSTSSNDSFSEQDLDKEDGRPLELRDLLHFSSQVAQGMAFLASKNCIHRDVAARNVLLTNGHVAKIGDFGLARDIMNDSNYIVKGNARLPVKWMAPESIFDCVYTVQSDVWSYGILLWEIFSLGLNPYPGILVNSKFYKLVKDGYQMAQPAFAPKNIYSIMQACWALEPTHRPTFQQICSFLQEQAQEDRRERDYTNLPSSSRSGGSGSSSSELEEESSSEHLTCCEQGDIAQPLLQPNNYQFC
How it was run: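 TR-FRET read (ex 340, em 495 and 520 nm) after EDTA/Tb-labelled antibody stop; IC50 by four-parameter logistic fit of percent inhibition. Reaction: 1.25 nM FMS, 10 min compound preincubation (3-fold series), then 1 h at room temperature with 10 μM ATP and 200 nM fluorescent PolyGT.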

PI3Kδ kinase = target: T6, PI3Kδ kinase (Homo sapiens, UniProt O00329); assay: PI3Kδ kinase assay (ADP-Glo, Reaction Biology); format: biochemical
T6 construct: purchased Reaction Biology Corporation (assay service)
T6 sequence (O00329 whole entry): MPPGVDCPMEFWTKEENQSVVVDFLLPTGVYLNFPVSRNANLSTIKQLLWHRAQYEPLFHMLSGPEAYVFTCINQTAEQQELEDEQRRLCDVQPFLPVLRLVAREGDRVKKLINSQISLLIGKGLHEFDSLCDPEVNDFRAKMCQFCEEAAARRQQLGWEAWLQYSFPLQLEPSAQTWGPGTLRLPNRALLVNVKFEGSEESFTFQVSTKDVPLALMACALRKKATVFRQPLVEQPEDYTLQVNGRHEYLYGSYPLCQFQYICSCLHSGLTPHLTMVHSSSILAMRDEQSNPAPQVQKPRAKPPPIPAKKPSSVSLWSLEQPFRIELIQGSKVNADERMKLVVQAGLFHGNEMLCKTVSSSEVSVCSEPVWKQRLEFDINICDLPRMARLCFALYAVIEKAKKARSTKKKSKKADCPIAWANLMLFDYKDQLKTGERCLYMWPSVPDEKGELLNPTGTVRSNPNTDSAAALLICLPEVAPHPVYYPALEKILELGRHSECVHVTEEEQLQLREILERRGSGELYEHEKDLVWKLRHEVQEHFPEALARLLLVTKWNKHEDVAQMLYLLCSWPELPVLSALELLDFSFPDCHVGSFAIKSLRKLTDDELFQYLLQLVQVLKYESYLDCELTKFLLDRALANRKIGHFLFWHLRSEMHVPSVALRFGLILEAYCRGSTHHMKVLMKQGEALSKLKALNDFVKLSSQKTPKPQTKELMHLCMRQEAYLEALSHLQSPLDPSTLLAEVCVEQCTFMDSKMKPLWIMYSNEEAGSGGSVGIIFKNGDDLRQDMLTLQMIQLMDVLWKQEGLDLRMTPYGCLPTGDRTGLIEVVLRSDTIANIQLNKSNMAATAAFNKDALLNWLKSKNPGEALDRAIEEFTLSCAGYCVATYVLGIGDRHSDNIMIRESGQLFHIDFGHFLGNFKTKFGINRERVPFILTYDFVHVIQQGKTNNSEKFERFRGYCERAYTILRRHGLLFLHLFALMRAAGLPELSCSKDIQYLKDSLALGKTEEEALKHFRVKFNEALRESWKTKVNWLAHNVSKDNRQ
T6 sequence (P27986 whole entry partner): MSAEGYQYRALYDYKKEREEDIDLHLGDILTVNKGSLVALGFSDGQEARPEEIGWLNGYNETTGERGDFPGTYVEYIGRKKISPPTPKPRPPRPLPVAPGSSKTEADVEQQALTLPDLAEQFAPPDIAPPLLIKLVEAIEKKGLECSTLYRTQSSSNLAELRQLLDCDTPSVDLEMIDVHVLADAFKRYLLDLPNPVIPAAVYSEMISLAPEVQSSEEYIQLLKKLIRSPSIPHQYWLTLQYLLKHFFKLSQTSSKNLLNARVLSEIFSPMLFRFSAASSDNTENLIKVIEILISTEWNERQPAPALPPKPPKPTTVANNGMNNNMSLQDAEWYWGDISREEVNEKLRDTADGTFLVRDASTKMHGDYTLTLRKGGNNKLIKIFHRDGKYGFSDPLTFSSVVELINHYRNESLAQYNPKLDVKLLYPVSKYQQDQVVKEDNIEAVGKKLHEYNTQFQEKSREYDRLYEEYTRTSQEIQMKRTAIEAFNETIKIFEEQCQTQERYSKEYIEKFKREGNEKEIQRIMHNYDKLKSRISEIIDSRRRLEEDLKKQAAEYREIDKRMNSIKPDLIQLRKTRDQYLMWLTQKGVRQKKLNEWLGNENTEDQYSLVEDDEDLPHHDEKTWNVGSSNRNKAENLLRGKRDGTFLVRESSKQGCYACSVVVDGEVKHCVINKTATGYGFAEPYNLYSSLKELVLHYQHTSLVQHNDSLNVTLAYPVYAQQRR
How it was run: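 Kinase in Tris-HCl 40 mM pH 7.5, MgCl2 20 mM, orthovanadate 3 mM, DTT 2 mM, 0.05% CHAPS, 1% DMSO, preincubated 10 min at room temperature with compound (about 0.5 nM–100 μM). ATP started a 30-min reaction at 30 °C. ADP-Glo luminescence converted to μM ADP via standard curve; IC50 from nonlinear regression.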

[1] = test system: DU4475 breast carcinoma cells; assay: Cancer cell proliferation assay, single agent (cell viability); format: cell-based; details: Homo sapiens, DU-4475; Table 4; Rb negative; treatment 144 Hr with medium change at 72 Hr; Cell Titer-Glo or resazurin
How it was run: (§1)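 Viability read by resazurin or CellTiter-Glo after 24 h treatment (BT-549) or 144 h with a 72 h medium change (MCF-7, DU4475). Compounds tested at 7–9 concentrations, e.g. 1.1 nM–10 μM, added the day after seeding; IC50 by nonlinear sigmoidal regression.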

[2] = test system: MCF-7 breast adenocarcinoma cells; assay: as above; format: cell-based; details: Homo sapiens, MCF7, Table 4; Rb positive; treatment 144 Hr with medium change at 72 Hr; Cell Titer-Glo or resazurin
How it was run: as §1

[3] = test system: Rb Ser780 phosphorylation in MCF-7 cells; assay: Determination of pRb levels (Ser780 phosphorylation, ELISA); format: cell-based; details: Homo sapiens, 24H treatment, percentage of vehicle control
Protocol: Hypo-phosphorylation of the retinoblastoma protein (Rb) by cyclin D:Cdk4/6 complexes results in active Rb, which is a clinically relevant biomarker associated with CDK4 or CDK6 inhibition. As a confirmatory measure of functional activity of CDK4/6, the Ser780 phosphorylation state of Rb was assessed. MCF-7 cells were plated at 2.5×10^5 to 3.0×10^6 cells/well in 6-well cell-culture plates and incubated at 37° C. for 24H in MEM medium supplemented with 10% FBS. Cells were treated for 24H with a medium containing test compound at various concentrations (e.g., 0.01, 0.1, […]) or with DMSO (≤1%) in duplicate. After incubation period, the media was removed, and cells were rinsed once with ice-cold PBS and lysed with 0.2 mL of Cell Lysis Buffer containing 1 mM PMSF and Protease Inhibitor. Protein concentration was estimated following Bradford method. The lysis and the Rb measurements were performed following the manufacturer's ELISA kit protocols and buffers (Cell Signaling Technology, Cat. No.: 13016C). Rb inhibition of test compounds was calculated as percentage of vehicle control. In some cases, a nonlinear regression model with a sigmoidal dose response and variable slope within GraphPad Prism was used to calculate the IC50 value of Rb inhibition for individual test compounds.

T1 sequence (P11802 whole entry): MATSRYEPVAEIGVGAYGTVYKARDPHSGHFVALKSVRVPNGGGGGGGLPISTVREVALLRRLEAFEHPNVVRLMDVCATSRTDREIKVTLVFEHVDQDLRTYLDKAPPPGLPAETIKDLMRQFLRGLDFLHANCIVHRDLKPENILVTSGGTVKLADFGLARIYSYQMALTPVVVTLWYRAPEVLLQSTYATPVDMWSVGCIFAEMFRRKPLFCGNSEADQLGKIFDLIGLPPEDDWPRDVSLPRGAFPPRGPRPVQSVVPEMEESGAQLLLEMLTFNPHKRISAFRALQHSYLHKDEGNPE
T1 sequence (P24385 whole entry partner): as the sequence (P24385 whole entry partner) above

| IC50 (CDK4) [nM] | IC50 (CDK6) [nM] | IC50 (CDK1 (cyclin B)) [nM] | IC50 (CDK2 (cyclin A)) [nM] | IC50 (FMS kinase) [nM] | IC50 (PI3Kδ kinase) [nM] | IC50 [1] [nM] | IC50 [2] [nM] | IC50 (CDK1 (cyclin B); read-out: CDK1/B IC50) [nM] | SMILES | inhibition at 0.01 µM ([3]; MCF7, 0.01 μM) [%] | inhibition at 0.1 µM ([3]; MCF7, 0.1 μM) [%] | inhibition at 1 µM ([3]; MCF7, 1 μM) [%] |
| --- | --- | --- | --- | --- | --- | --- | --- | --- | --- | --- | --- | --- |
| 2.7 | 5.8 | 230 | 11 | 490 | > 25300 | 1300 | 190 |  | CCS(=O)(=O)N1CCC(Nc2ncc3cc(C#N)c(=O)n(C4CCCC4)c3n2)CC1 [Compound No. 357, 8-cyclopentyl-2-((1-(ethylsulfonyl)piperidin-4-yl)amino)-7-oxo-7,8-dihydropyrido[2,3-d]pyrimidine-6-carbonitrile] |  |  |  |
| 22 | 4.5 | 2930 | 151 | 925 | > 48200 | 2410 | 320 |  | CN(C)S(=O)(=O)N1CCC(Nc2ncc3cc(C#N)c(=O)n(C4CCCC4)c3n2)CC1 [Compound No. 366, 4-((6-cyano-8-cyclopentyl-7-oxo-7,8-dihydropyrido[2,3-d]pyrimidin-2-yl)amino)-N,N-dimethylpiperidine-1-sulfonamide] |  |  |  |
| 167 | > 200 |  | 1240 | 311 | 1710 | 5630 | 1260 | > 5000 | CS(=O)(=O)N1CCC[C@@H](Nc2ncc3cc(C#N)c(=O)n(C4CCCC4)c3n2)C1 [Compound No. 365, (R)-8-cyclopentyl-2-((1-(methylsulfonyl)piperidin-3-yl)amino)-7-oxo-7,8-dihydropyrido[2,3-d]pyrimidine-6-carbonitrile] |  |  |  |
| 2 | 4.5 | 55 | 5.5 | 55 | 19900 | 1140 | 175 |  | N#Cc1cc2cnc(NC3CCN(S(=O)(=O)C4CC4)CC3)nc2n(C2CCCC2)c1=O [Compound No. 356, 8-cyclopentyl-2-((1-(cyclopropylsulfonyl)piperidin-4-yl)amino)-7-oxo-7,8-dihydropyrido[2,3-d]pyrimidine-6-carbonitrile] |  |  |  |
| 4.4 | 6.6 | 1380 | 119 | 1130 | > 44000 | 12800 | 2800 |  | N#Cc1cc2cnc(NC3CCN(S(=O)(=O)CC(F)(F)F)CC3)nc2n(C2CCCC2)c1=O [Compound No. 358, 8-cyclopentyl-7-oxo-2-((1-((2,2,2-trifluoroethyl)sulfonyl)piperidin-4-yl)amino)-7,8-dihydropyrido[2,3-d]pyrimidine-6-carbonitrile] |  |  |  |
| > 200 | 57 |  | 177 | 18 | 10200 | 10100 | > 30000 | > 5000 | N#Cc1cc2cnc(Nc3ccc4c(c3)CCNC4)nc2n(C2CCCC2O)c1=O (stereo not shown) [Compound No. 346, 8-(2-hydroxycyclopentyl)-7-oxo-2-((1,2,3,4-tetrahydroisoquinolin-6-yl)amino)-7,8-dihydropyrido[2,3-d]pyrimidine-6-carbonitrile] |  |  |  |
| 77.5 | 64 |  | 201 | 3.5 | 1630 | 960 | 435 | > 4670 | N#Cc1cc2cnc(Nc3ccc4c(c3)CCNC4)nc2n(C2CCC(F)(F)C2)c1=O (stereo not shown) [Compound No. 344, 8-(3,3-difluorocyclopentyl)-7-oxo-2-((1,2,3,4-tetrahydroisoquinolin-6-yl)amino)-7,8-dihydropyrido[2,3-d]pyrimidine-6-carbonitrile] |  |  |  |
| 2 | 1.5 |  |  | 7 | 906 |  | 2280 |  | N#Cc1cc2cnc(Nc3ccc(N4CCNCC4)cc3)nc2n(C2CCCc3ccccc32)c1=O (stereo not shown) [Compound No. 39, 7-oxo-2-((4-(piperazin-1-yl)phenyl)amino)-8-(1,2,3,4-tetrahydronaphthalen-1-yl)-7,8-dihydropyrido[2,3-d]pyrimidine-6-carbonitrile] | -25 | 40 | 52 |
| 55 | 7.4 | 2920 | 308 | 102 | 539 | 5160 | 640 |  | CS(=O)(=O)N1CCC(Nc2ncc3cc(C#N)c(=O)n(C4CCCCC4)c3n2)CC1 [Compound No. 367, 8-cyclohexyl-2-((1-(methylsulfonyl)piperidin-4-yl)amino)-7-oxo-7,8-dihydropyrido [2,3-d] pyrimidine-6-carbonitrile] |  |  |  |
| > 200 | > 200 |  | > 3120 | 6.5 | 770 | 5720 | 1280 | > 5000 | CCOCCCn1c(=O)c(C#N)cc2cnc(Nc3ccc4c(c3)CCNC4)nc21 [Compound No. 343, 8-(3-ethoxypropyl)-7-oxo-2-((1,2,3,4-tetrahydroisoquinolin-6-yl)amino)-7,8-dihydropyrido[2,3-d]pyrimidine-6-carbonitrile] |  |  |  |
| > 200 | > 200 |  | 1740 | 55 | 7770 | > 30000 | > 30000 | > 5000 | N#Cc1cc2cnc(Nc3ccc4c(c3)CCNC4)nc2n(C2COCC2O)c1=O (stereo not shown) [Compound No. 101, 8-(4-hydroxytetrahydrofuran-3-yl)-7-oxo-2-((1,2,3,4-tetrahydroisoquinolin-6-yl)amino)-7,8-dihydropyrido[2,3-d]pyrimidine-6-carbonitrile] |  |  |  |

— US20220273659A1, “HETEROCYCLIC COMPOUNDS AS KINASE INHIBITORS” (NUVATION BIO INC., priority 2019, published 2022)
